Each block holds one molecule with its values, some of them ahead of it. Activity calls are given as the source filed them.
Assays:
[1] = system: CHO-K1; test: (§1) Counterscreen for antagonists of the orexin 1 receptor (OX1R; HCRTR1): Homogeneous time resolved fluorescence (HTRF)-based cell-based dose response assay to identify antagonists of the parental CHO-K1 cell line. [Related pubchem assays (depositor defined):AID434989, AID435008, AID463079, AID485270, AID492963, AID492964, AID492965, AID493232, AID504699, AID504701]; assay type: functional; conditions: Cricetulus griseus
[2] = as §1, with “Fluorescence-based” for “Homogeneous time resolved fluorescence (HTRF)-based”, “cell-based high throughput” for “cell-based”, “CHO” for “CHO-K1”; assay type: functional
[3] = molecular target: T1, Orexin/Hypocretin receptor type 1 (Homo sapiens, UniProt O43613); test: Homogeneous Time Resolved Fluorescence (HTRF)-based cell-based high throughput dose response assay for antagonists of the orexin 1 receptor (OX1R; HCRTR1). [Related pubchem assays (depositor defined):AID434989, AID435008, AID463079, AID485270, AID492963, AID492964, AID492965, AID493232, AID504717, AID504718]; assay type: functional
T1 sequence (O43613 whole entry): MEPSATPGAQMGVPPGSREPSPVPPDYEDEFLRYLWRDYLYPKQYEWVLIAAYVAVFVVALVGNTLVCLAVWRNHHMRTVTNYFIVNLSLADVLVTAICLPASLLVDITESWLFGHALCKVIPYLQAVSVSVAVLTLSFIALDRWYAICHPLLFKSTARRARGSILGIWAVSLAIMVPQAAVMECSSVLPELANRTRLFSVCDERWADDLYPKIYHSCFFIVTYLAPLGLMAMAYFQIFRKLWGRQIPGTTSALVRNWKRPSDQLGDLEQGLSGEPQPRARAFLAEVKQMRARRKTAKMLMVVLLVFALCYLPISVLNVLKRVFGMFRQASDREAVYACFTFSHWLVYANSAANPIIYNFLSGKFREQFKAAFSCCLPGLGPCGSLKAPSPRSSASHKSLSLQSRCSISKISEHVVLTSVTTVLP

[4] = molecular target: T1, Orexin/Hypocretin receptor type 1; test: Fluorescence-based cell-based high throughput dose response assay for antagonists of the orexin 1 receptor (OX1R; HCRTR1). [Related pubchem assays (depositor defined):AID434989, AID435008, AID463079, AID485270, AID492963, AID492964, AID492965, AID493232, AID504717, AID504718]; assay type: functional
[5] = molecular target: T2, Orexin receptor type 2 (Homo sapiens, UniProt O43614); test: Counterscreen assay for antagonists of the orexin 1 receptor (OX1R; HCRTR1): Fluorescence-based cell-based dose response assay for antagonists of the orexin 2 receptor (OX2R; HCRTR2), run by assay provider.; assay type: functional
T2 sequence (O43614 whole entry): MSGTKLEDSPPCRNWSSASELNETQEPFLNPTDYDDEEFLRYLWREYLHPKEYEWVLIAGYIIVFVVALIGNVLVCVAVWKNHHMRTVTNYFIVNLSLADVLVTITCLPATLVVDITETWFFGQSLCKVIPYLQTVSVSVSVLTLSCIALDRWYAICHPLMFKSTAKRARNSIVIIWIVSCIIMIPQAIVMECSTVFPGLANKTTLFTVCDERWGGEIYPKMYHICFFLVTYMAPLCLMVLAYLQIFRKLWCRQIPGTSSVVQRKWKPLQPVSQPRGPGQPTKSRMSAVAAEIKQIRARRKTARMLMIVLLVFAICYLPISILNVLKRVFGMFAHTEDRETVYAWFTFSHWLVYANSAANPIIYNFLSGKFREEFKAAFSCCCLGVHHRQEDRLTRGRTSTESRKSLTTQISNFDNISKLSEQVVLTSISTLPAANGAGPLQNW

[6] = molecular target: T2, Orexin receptor type 2; test: Counterscreen assay for antagonists of the orexin 1 receptor (OX1R; HCRTR1): Homogeneous Time Resolved Fluorescence (HTRF)-based cell-based dose response assay for antagonists of the orexin 2 receptor (OX2R; HCRTR2), run by assay provider.; assay type: functional
[7] = molecular target: Protein disulfide-isomerase (Homo sapiens, UniProt P07237); test: PDI inhibitors, insulin aggregation turbidity, dose response, biochemical, absorbance, cherry-picked samples (AID 602350); assay type: functional
Sequence of Protein disulfide-isomerase (P07237 whole entry): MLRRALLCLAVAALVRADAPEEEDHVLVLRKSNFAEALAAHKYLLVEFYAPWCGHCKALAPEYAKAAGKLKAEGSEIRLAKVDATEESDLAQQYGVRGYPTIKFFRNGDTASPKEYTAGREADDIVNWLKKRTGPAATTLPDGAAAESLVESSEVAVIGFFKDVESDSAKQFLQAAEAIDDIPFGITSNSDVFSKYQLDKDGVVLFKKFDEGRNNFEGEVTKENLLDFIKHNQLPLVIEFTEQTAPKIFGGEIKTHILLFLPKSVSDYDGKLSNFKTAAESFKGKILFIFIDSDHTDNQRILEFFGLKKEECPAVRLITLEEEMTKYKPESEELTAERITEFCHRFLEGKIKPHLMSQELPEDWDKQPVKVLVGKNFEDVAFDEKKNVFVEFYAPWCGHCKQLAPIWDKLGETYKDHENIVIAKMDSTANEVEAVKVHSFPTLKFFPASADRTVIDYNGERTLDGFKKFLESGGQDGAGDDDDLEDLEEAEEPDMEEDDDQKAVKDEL

[8] = molecular target: T3, Caspase-3 (Homo sapiens, UniProt P42574); test: caspase-3 inhibitors as off-family protease, SAR follow-up, selectivity assay for SENP protease inhibitor project, biochemical, luminescence, set 2 (AID 588599); assay type: functional
T3 sequence (P42574 whole entry): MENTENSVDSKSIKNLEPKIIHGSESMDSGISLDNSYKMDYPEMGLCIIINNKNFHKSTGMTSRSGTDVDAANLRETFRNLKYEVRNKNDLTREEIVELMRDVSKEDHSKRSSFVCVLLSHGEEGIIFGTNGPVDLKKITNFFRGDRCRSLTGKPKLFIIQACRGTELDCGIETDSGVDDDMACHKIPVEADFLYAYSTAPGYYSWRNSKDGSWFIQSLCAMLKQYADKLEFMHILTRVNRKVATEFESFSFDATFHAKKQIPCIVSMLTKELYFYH

[9] = molecular target: T4, Sentrin-specific protease 8 (Homo sapiens, UniProt Q96LD8); test: SENP8 protease inhibitors, SAR follow-up, biochemical, luminescence, set 2 (AID 588601); assay type: functional
T4 sequence (Q96LD8 whole entry): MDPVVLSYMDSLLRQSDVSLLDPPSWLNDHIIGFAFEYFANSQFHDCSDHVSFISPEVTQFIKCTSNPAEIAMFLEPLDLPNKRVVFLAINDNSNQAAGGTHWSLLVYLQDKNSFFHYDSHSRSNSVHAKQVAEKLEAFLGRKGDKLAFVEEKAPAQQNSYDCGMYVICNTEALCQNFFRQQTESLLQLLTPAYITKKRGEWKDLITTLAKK

[10] = molecular target: T5, Sentrin-specific protease 7 (Homo sapiens, UniProt Q9BQF6); test: SENP7 protease inhibitors, SAR follow-up, biochemical, luminescence, set 2 (AID 588600); assay type: functional
T5 sequence (Q9BQF6 whole entry): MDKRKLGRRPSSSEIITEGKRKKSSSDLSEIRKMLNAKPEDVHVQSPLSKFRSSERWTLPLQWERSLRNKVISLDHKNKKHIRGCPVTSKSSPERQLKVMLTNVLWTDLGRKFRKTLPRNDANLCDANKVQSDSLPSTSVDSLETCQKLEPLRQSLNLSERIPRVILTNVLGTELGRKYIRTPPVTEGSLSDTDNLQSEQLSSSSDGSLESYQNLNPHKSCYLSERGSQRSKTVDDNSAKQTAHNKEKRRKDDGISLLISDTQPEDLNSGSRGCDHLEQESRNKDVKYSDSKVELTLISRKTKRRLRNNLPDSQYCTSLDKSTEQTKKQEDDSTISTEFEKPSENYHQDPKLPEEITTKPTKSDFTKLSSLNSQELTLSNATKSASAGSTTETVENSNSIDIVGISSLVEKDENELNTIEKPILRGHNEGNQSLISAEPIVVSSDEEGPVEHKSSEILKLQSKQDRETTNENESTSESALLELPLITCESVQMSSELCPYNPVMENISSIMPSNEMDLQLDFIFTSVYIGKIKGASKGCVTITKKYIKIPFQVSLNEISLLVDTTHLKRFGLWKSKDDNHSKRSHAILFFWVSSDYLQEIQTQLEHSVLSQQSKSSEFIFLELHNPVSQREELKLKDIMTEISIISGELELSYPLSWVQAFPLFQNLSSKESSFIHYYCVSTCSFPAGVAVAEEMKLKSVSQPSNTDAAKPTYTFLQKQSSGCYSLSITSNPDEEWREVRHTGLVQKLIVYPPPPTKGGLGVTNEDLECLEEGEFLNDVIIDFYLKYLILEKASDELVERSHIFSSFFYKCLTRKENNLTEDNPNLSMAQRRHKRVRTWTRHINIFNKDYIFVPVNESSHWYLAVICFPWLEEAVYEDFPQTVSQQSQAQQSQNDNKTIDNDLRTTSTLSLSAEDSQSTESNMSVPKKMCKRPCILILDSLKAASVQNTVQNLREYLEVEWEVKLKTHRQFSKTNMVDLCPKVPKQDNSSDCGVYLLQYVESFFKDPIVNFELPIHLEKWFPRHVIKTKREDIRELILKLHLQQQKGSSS

[11] = molecular target: T6, Sentrin-specific protease 6 (Homo sapiens, UniProt Q9GZR1); test: SENP6 protease inhibitors, SAR follow-up, biochemical, luminescence, set 2 (AID 588598); assay type: functional
T6 sequence (Q9GZR1 whole entry): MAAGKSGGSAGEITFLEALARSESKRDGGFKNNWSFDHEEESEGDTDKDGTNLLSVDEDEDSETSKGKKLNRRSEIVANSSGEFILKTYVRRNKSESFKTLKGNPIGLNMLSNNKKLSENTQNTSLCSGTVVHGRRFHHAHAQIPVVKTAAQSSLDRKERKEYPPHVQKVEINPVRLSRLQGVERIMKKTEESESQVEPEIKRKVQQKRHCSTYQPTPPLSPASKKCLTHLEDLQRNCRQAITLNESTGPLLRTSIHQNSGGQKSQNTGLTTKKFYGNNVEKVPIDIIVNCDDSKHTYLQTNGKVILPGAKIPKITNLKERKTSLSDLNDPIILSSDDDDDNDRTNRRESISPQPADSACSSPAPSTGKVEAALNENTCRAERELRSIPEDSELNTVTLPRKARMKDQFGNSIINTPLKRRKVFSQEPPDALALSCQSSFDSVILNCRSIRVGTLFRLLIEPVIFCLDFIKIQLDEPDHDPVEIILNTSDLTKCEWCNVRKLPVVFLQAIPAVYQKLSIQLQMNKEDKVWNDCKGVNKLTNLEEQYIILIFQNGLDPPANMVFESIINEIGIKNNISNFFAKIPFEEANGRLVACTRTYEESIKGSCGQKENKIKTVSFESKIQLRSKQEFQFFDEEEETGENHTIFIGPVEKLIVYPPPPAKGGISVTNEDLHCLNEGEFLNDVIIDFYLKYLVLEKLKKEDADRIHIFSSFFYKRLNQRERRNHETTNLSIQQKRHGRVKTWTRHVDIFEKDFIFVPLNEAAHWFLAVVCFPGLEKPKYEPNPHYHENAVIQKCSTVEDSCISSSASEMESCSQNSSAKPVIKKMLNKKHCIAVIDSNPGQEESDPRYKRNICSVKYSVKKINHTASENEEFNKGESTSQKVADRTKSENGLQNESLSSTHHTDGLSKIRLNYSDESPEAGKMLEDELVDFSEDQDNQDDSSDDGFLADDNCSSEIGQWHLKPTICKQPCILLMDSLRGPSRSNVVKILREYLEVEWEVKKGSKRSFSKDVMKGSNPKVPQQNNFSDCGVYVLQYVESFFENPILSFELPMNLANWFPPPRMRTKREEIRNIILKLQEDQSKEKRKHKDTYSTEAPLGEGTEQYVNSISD

[12] = NIH-3T3 fibroblast cytotoxicity, dose response, cytotoxicity control, cell-based, fluorescence, Alamar Blue, secondary assay (AID 2327); assay type: functional;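 also: NIH-3T3 mouse fibroblasts cultured with fluconazole at 8 µg/mL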
[13] = C. albicans growth with fluconazole, confirmation, fluorescence, retest (AID 2467); assay type: functional, cell-based
[14] = molecular target: NAD-dependent protein deacylase sirtuin-5, mitochondrial (Homo sapiens, UniProt Q9NXA8); test: SIRT5 desuccinylase inhibitors, dose response, biochemical, fluorescence imaging, cherry-pick, set 5 (AID 720591);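 also: desuccinylation of succinyl peptide AMC substrate read as fluorescence after trypsin release; potency of inhibitors that lower fluorescence and may act on trypsin instead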
Sequence of NAD-dependent protein deacylase sirtuin-5, mitochondrial (Q9NXA8 whole entry): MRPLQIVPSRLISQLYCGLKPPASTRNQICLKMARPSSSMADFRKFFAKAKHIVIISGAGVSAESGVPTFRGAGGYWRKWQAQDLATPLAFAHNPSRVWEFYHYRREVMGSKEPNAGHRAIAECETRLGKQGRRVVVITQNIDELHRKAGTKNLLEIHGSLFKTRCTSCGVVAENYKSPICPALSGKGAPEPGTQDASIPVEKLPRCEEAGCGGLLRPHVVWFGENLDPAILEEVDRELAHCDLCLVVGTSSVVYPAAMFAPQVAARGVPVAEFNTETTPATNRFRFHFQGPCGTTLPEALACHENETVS

[15] = molecular target: T4, Sentrin-specific protease 8; test: SENP8 protease inhibitors, SAR follow-up, biochemical, luminescence (AID 504501); assay type: functional
[16] = molecular target: T3, Caspase-3; test: SAR Analysis of small molecule inhibitors of Sentrin-specific proteases (SENPs) using a Caspase-3 Selectivity assay. [Related pubchem assays (depositor defined):AID2540, AID2599, AID434973, AID489001]; assay type: functional
[17] = molecular target: T6, Sentrin-specific protease 6; test: SAR Analysis of small molecule inhibitors of Sentrin-specific protease 6 (SENP6) using a Luminescent assay. [Related pubchem assays (depositor defined):AID2582, AID2599]; assay type: functional
[18] = molecular target: T5, Sentrin-specific protease 7; test: SENP7 protease inhibitors, SAR follow-up, biochemical, luminescence (AID 504497); assay type: functional

Compound: Cn1c2ccc(Cl)cc2c2nc3ccccc3nc21
- IC50 [1]: > 66.2 µM (inactive)
- IC50 [2]: > 49.8 µM (inactive)
- IC50 [3]: 1.13 µM (active)
- IC50 [4]: 4.25 µM (active)
- IC50 [5]: > 88.8 µM (inactive)
- IC50 [6]: > 50 µM (inactive)

Compound: CC[C@]12c3[nH]c4cc(-c5ccco5)ccc4c3CCN1C(=O)[C@@H](CC(=O)NCCCOC)C[C@@H]2C(=O)N1CCN(C(=O)c2ccco2)CC1
- AC50 [7]: 16.7 µM (active)

Compound: CCOc1ccccc1C(=O)Nc1ccc2nc3n(c(=O)c2c1)CCCCC3
- EC50 [12]: > 160 µM (inactive)
- EC50 [13]: > 38 µM (not active)
- IC50 [1]: > 66.3 µM (inactive)
- IC50 [2]: > 49.8 µM (inactive)
- IC50 [3]: 0.417 µM (active)
- IC50 [4]: 2.58 µM (active)
- IC50 [5]: > 88.8 µM (inactive)
- IC50 [6]: > 50 µM (inactive)
- AC50 [14]: > 30 µM (inactive)

Now from value to molecule, other results behind:

- IC50 [8]: > 99 µM (inactive)
- IC50 [10]: > 99 µM (inactive)
- IC50 [11]: > 99 µM (inactive)
Compound: O=C(COc1ccc(Cl)cc1Cl)NCC(=O)N/N=C/c1c[nH]c2ccccc12
- IC50 [9]: > 99 µM (inactive)

- IC50 [8]: > 99 µM (inactive)
- IC50 [10]: > 99 µM (inactive)
- IC50 [11]: > 99 µM (inactive)
Compound: O=C(NCc1ccccc1F)C(=O)c1c[nH]c2ccccc12
- IC50 [9]: > 99 µM (inactive)

- AC50 [7]: 19.5 µM (active)
Compound: C[C@H]1CN([C@@H](C)CO)C(=O)c2cc(NC(=O)Cc3cn(C)c4ccccc34)ccc2O[C@H]1CN(C)S(=O)(=O)c1ccc(F)cc1

- IC50 [16]: > 99 µM (inactive)
- IC50 [17]: > 99 µM (inactive)
- IC50 [18]: > 99 µM (inactive)
Compound: CCc1cccc2sc(NC(=O)c3cccc(F)c3)nc12
- IC50 [15]: > 99 µM (inactive)

From ChEMBL document CHEMBL1201862, “PubChem BioAssay data set” (2004)
